# Data published in patent US20020137929A1, “1 - (3-heterocyclylphenyl) isothiourea, -isourea, -guanidine and -amidine herbicidal agents” (Intellectual Property Department, BASF Aktiengesellschaft, priority 1998, published 2002).
# What was measured:
# CYPIR (Rice Flatsedge) = assay: Preemergence weed control under flooded paddy conditions; assay type: in vivo, Cyperus iria; details: rated 3-4 weeks after treatment
# Outline: (§1)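 Ratings on a 0-9 visual scale cover stand, vigor, malformation, size, chlorosis and overall appearance relative to a control, taken three to four weeks post-treatment. Application was into flood water over freshly sown silt loam at roughly 0.0313 to 0.500 kg/ha.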
# [1] = test system: GLXMAW (Soybean, Williams); assay: Preemergence herbicidal evaluation; assay type: in vivo, Glycine max, (L.) Merr. cv Williams; details: rated 4-5 weeks after treatment
# Outline: (§2)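 Sown cups got a single aqueous acetone spray of test compound (roughly 0.0156–0.500 kg/ha) before seedlings emerged. Evaluation, 4–5 weeks on, used a 0–9 visual scale covering plant stand, vigor, size, malformation, chlorosis and general appearance compared with controls.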
# [2] = test system: GLXMAW (Soybean, Williams); assay: Postemergence herbicidal evaluation; assay type: in vivo, Glycine max, (L.) Merr. cv Williams; details: postemergence
# Outline: (§3)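 Herbicidal effect was judged by eye on a 0–9 scale covering stand, vigor, deformity, size and chlorosis, compared with controls, four to five weeks after seedlings about two weeks old were sprayed (40 psi, ~0.0156–0.500 kg/ha).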
# ZEAMX (Corn, Field) = assay: Preemergence herbicidal evaluation; assay type: in vivo, Zea mays; details: rated 4-5 weeks after treatment
# Outline: as §2
# ECHCG (Barnyardgrass) = assay: Postemergence herbicidal evaluation; assay type: in vivo, Echinochloa crus-galli; details: postemergence
# Outline: as §3
# [3] = test system: IPOHE (Morningglory, Ivyleaf); assay: Preemergence herbicidal evaluation; assay type: in vivo, Ipomoea hederacea; details: rated 4-5 weeks after treatment
# Outline: as §2
# ABUTH (Velvetleaf) [4] = assay: Postemergence herbicidal evaluation; assay type: in vivo, Abutilon theophrasti; details: postemergence
# Outline: as §3
# MOOVA (Monochoria) = assay: Preemergence weed control under flooded paddy conditions; assay type: in vivo, Monochoria vaginalis; details: rated 3-4 weeks after treatment
# Outline: as §1
# ORYSAT (Rice, Tebonnet) = assay: Preemergence herbicidal evaluation; assay type: in vivo, Oryza sativa, (L.) Tebonnet; details: rated 4-5 weeks after treatment
# Outline: as §2
# CYPSE (Flatsedge) = assay: Preemergence weed control under flooded paddy conditions; assay type: in vivo, Cyperus serotinus; details: 0.0313 kg/ha, rated 3-4 weeks after treatment
# Outline: as §1
# [5] = test system: CHEAL (Lambsquarters, Common); assay: Postemergence herbicidal evaluation; assay type: in vivo, Chenopodium album; details: postemergence
# Outline: as §3
# ABUTH (Velvetleaf) [6] = assay: Preemergence herbicidal evaluation; assay type: in vivo, Abutilon theophrasti; details: rated 4-5 weeks after treatment
# Outline: as §2
structure (smiles),measurement,setting,value
"CCOC(=O)CN1C(=O)C(CC(=O)O)SC1=Nc1cc(-n2nc(C)n(C(F)F)c2=O)c(F)cc1Cl (stereo not shown) [Compound 112, 2-{{2-Chloro-5-[4-(difluoromethyl)-4,5-dihydro-3-methyl-5-oxo-1H-1,2,4-triazol-1-yl]-4-fluorophenyl}imino}-4-oxo-3,5-thiazolidinediacetic acid, 3-ethyl ester]",CYPIR herbicidal effect rating,CYPIR (Rice Flatsedge); 0.0313 kg/ha,0.0
same,CYPIR herbicidal effect rating,CYPIR (Rice Flatsedge); 0.0625 kg/ha,3.0
same,CYPIR herbicidal effect rating,CYPIR (Rice Flatsedge); 0.1250 kg/ha,6.0
same,CYPIR herbicidal effect rating,CYPIR (Rice Flatsedge); 0.2500 kg/ha,7.0
same,Preemergence herbicidal rating GLXMAW,[1]; rate 0.0313 kg/ha,0.0
same,Preemergence herbicidal rating GLXMAW,[1]; rate 0.0625 kg/ha,1.0
same,Preemergence herbicidal rating GLXMAW,[1]; rate 0.1250 kg/ha,3.0
same,Preemergence herbicidal rating GLXMAW,[1]; rate 0.2500 kg/ha,3.0
same,herbicidal rating GLXMAW,[2]; rate 0.0158 kg/ha,5.5
same,herbicidal rating GLXMAW,[2]; rate 0.0315 kg/ha,5.0
same,herbicidal rating GLXMAW,[2]; rate 0.0630 kg/ha,6.0
same,Preemergence herbicidal rating ZEAMX,"ZEAMX (Corn, Field); rate 0.0313 kg/ha",0.0
same,Preemergence herbicidal rating ZEAMX,"ZEAMX (Corn, Field); rate 0.0625 kg/ha",0.0
same,Preemergence herbicidal rating ZEAMX,"ZEAMX (Corn, Field); rate 0.1250 kg/ha",1.0
same,Preemergence herbicidal rating ZEAMX,"ZEAMX (Corn, Field); rate 0.2500 kg/ha",4.0
same,herbicidal rating ECHCG,ECHCG (Barnyardgrass); rate 0.0158 kg/ha,2.0
same,herbicidal rating ECHCG,ECHCG (Barnyardgrass); rate 0.0315 kg/ha,4.0
same,herbicidal rating ECHCG,ECHCG (Barnyardgrass); rate 0.0630 kg/ha,4.0
same,Preemergence herbicidal rating IPOHE,[3]; rate 0.0313 kg/ha,0.0
same,Preemergence herbicidal rating IPOHE,[3]; rate 0.0625 kg/ha,0.0
same,Preemergence herbicidal rating IPOHE,[3]; rate 0.1250 kg/ha,0.0
same,Preemergence herbicidal rating IPOHE,[3]; rate 0.2500 kg/ha,0.0
same,herbicidal rating ABUTH,ABUTH (Velvetleaf) [4]; rate 0.0158 kg/ha,9.0
same,herbicidal rating ABUTH,ABUTH (Velvetleaf) [4]; rate 0.0315 kg/ha,9.0
same,herbicidal rating ABUTH,ABUTH (Velvetleaf) [4]; rate 0.0630 kg/ha,9.0
same,MOOVA herbicidal effect rating,MOOVA (Monochoria); 0.0313 kg/ha,9.0
same,MOOVA herbicidal effect rating,MOOVA (Monochoria); 0.0625 kg/ha,9.0
same,MOOVA herbicidal effect rating,MOOVA (Monochoria); 0.1250 kg/ha,9.0
same,MOOVA herbicidal effect rating,MOOVA (Monochoria); 0.2500 kg/ha,9.0
same,Preemergence herbicidal rating ORYSAT,"ORYSAT (Rice, Tebonnet); rate 0.0313 kg/ha",0.0
same,Preemergence herbicidal rating ORYSAT,"ORYSAT (Rice, Tebonnet); rate 0.0625 kg/ha",0.0
same,Preemergence herbicidal rating ORYSAT,"ORYSAT (Rice, Tebonnet); rate 0.1250 kg/ha",0.0
same,Preemergence herbicidal rating ORYSAT,"ORYSAT (Rice, Tebonnet); rate 0.2500 kg/ha",2.0
same,CYPSE herbicidal effect rating,CYPSE (Flatsedge),0.0
same,herbicidal rating CHEAL,[5]; rate 0.0158 kg/ha,4.0
same,herbicidal rating CHEAL,[5]; rate 0.0315 kg/ha,9.0
same,herbicidal rating CHEAL,[5]; rate 0.0630 kg/ha,9.0
same,Preemergence herbicidal rating ABUTH,ABUTH (Velvetleaf) [6]; rate 0.0313 kg/ha,0.0
same,Preemergence herbicidal rating ABUTH,ABUTH (Velvetleaf) [6]; rate 0.0625 kg/ha,0.0
same,Preemergence herbicidal rating ABUTH,ABUTH (Velvetleaf) [6]; rate 0.2500 kg/ha,1.0
